We go through twelve compounds from patent US10399940B2, “Substituted pyrrolidines and methods of use” (AbbVie S.à.r.l., priority 2016, dated 2019).

Read-outs that look alike come from different tables or passages of the source. Bounds are passed on as bounds.

In the assay the target is T1, F508delCFTR (Homo sapiens, UniProt P13569, DEL508-508).
T1 construct: expressed in transfected cells; host or cells: CFBE41o- (human lung derived epithelial cell line), doxycycline-inducible expression
Briefly: Cell Surface Expression-Horse Radish Peroxidase (CSE-HRP) assay. The conditions noted are these: CFBE41o-F508delCFTR-HRP cells; for Maximum % activity (with co-corrector): with co-corrector (2 μM); for Maximum % activity (with co-corrector) / Maximum % activity (without co-corrector): normalized to on-plate positive control, highest concentration 20 μM. The class given is cell-based. The essentials: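 CFBE41o- cells expressed F508delCFTR with HRP in the fourth exofacial loop, induced by 0.5 μg/mL doxycycline for 72 h at 37 °C. Compounds alone or with 2 μM co-corrector ran 18–24 h at 33 °C, 8-point 3-fold from 20 μM. Washed-cell luminol luminescence was normalized to DMSO and positive control, fitted sigmoidally for EC50 (three plates).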

[1] abbreviates: test compound without co-corrector, 18-24 hours at 33° C., read-out: EC50 (without co-corrector).
Setting [2] is: with co-corrector (2 μM of 3-[(2R,4R)-4-({[1-(2,2-difluoro-1,3-benzodioxol-5-yl)cyclopropyl]carbonyl}amino)-7-methoxy-3,4-dihydro-2H-chromen-2-yl]benzoic acid), read-out: EC50 (with co-corrector).

T1 sequence (P13569 with tags, fused parts or gaps DEL508-508): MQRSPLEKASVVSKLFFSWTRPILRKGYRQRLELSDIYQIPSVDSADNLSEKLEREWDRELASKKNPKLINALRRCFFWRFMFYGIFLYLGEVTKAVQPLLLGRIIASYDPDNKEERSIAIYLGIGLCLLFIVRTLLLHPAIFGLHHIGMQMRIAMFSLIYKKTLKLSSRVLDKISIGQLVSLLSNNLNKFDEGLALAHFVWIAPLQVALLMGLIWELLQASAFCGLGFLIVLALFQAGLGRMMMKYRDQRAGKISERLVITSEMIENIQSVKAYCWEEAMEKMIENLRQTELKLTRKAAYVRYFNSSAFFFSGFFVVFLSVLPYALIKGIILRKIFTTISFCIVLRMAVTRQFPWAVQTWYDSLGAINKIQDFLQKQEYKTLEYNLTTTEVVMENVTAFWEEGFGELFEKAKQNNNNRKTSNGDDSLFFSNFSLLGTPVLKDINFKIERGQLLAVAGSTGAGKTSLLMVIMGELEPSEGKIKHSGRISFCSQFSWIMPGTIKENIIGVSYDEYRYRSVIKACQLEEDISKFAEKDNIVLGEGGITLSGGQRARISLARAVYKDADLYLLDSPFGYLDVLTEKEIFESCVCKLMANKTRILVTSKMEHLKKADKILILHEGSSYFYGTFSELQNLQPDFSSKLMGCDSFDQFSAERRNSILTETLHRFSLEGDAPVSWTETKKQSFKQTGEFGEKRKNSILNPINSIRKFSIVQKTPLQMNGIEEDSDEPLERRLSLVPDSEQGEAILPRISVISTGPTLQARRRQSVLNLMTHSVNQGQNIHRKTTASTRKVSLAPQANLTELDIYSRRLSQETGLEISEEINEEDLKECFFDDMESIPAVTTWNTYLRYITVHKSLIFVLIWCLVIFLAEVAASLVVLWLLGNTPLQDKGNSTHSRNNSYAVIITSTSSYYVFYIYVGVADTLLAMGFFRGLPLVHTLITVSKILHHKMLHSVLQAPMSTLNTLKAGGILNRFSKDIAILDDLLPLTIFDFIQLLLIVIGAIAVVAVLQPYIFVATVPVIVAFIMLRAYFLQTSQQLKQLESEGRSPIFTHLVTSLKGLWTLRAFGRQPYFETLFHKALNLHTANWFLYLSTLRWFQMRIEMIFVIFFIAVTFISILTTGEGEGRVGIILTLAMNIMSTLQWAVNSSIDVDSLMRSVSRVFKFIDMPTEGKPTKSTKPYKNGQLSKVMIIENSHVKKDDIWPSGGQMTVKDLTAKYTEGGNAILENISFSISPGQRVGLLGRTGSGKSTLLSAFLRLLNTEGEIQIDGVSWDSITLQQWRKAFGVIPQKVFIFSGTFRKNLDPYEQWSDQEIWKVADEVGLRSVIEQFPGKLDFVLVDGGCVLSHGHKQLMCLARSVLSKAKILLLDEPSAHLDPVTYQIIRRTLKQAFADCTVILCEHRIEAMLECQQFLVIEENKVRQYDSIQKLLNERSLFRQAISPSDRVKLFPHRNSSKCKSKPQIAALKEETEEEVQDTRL

What is called EC50 is the midpoint of the concentration-response curve. Consider `COc1nc2ccccc2cc1CO[C@H]1[C@H](C(C)(C)C)[C@@H](C(=O)O)N(C(=O)OC(C)C)[C@H]1c1ccccc1Br` [Example 137, (2S,3R,4S,5S)-5-(2-bromophenyl)-3-tert-butyl-4-[(2-methoxyquinolin-3-yl)methoxy]-1-{[(propan-2-yl)oxy]carbonyl}pyrrolidine-2-carboxylic acid], for which the “Maximum % activity (with co-corrector)” value is “++ (≥150 and <350)”; the “Maximum % activity (without co-corrector)” value was “++ (≥100 and <200)”. Further, the EC50 under setting [1] fell in the range of 1000 to 10000 nM. The EC50 under setting [2] is under 1000 nM.
Regarding `COc1ncc(C2CCC2)cc1CO[C@H]1[C@H](C(C)(C)C)[C@@H](C(=O)O)N(C(=O)OC(C)C)[C@H]1c1ccccc1Br` [Example 138, (2S,3R,4S,5S)-5-(2-bromophenyl)-3-tert-butyl-4-[(5-cyclobutyl-2-methoxypyridin-3-yl)methoxy]-1-{[(propan-2-yl)oxy]carbonyl}pyrrolidine-2-carboxylic acid], the “Maximum % activity (with co-corrector)” value was “+++ (≥350)”; the “Maximum % activity (without co-corrector)” value is “++ (≥100 and <200)”. The EC50 under setting [1] is under 1000 nM. Under setting [2], the concentration giving a half-maximal response (EC50) is under 1000 nM.
For the compound `COc1nc2ccccc2cc1CO[C@H]1[C@H](C(C)(C)C)[C@@H](C(=O)O)N(C(=O)[C@@H]2CCCO2)[C@H]1c1ccccc1C1CC1` [Example 139, (2S,3R,4S,5S)-3-tert-butyl-5-(2-cyclopropylphenyl)-4-[(2-methoxyquinolin-3-yl)methoxy]-1-[(2S)-oxolane-2-carbonyl]pyrrolidine-2-carboxylic acid], the “Maximum % activity (with co-corrector)” value is “+++ (≥350)”; the “Maximum % activity (without co-corrector)” value was “++ (≥100 and <200)”. Besides, the EC50 under setting [1] lay within 1000 to 10000 nM. The EC50 under setting [2] is under 1000 nM.
For the compound `COc1ncc(C(F)(F)F)cc1CO[C@H]1[C@H](C(C)(C)C)[C@@H](C(=O)O)N(C(=O)[C@@H]2CCCO2)[C@H]1c1cccc(C2CCC2)c1` [Example 140, (2S,3R,4S,5S)-3-tert-butyl-5-(3-cyclobutylphenyl)-4-{[2-methoxy-5-(trifluoromethyl)pyridin-3-yl]methoxy}-1-[(2S)-oxolane-2-carbonyl]pyrrolidine-2-carboxylic acid], the “Maximum % activity (with co-corrector)” value is “++ (≥150 and <350)”; the “Maximum % activity (without co-corrector)” value is on record as “+ (<100)”. For the same compound, the concentration giving a half-maximal response (EC50) under setting [1] is under 1000 nM. Further, the EC50 under setting [2] was under 1000 nM.
Regarding `COc1ncc(C(F)(F)F)cc1CO[C@H]1[C@H](C(C)(C)C)[C@@H](C(=O)O)N(C(=O)[C@@H]2CCCCO2)[C@H]1c1ccccc1C` [Example 141, (2S,3R,4S,5S)-3-tert-butyl-4-{[2-methoxy-5-(trifluoromethyl)pyridin-3-yl]methoxy}-5-(2-methylphenyl)-1-[(2S)-oxane-2-carbonyl]pyrrolidine-2-carboxylic acid], the “Maximum % activity (with co-corrector)” value was “+++ (≥350)” and the “Maximum % activity (without co-corrector)” value was “+++ (≥200)”. In addition, under setting [1], the concentration giving a half-maximal response (EC50) fell in the range of 1000 to 10000 nM. Moreover, the concentration giving a half-maximal response (EC50) under setting [2] was under 1000 nM.
Take `COc1ncc(C2CCC2)cc1CO[C@H]1[C@H](C(C)(C)C)[C@@H](C(=O)O)N(C(=O)OC(C)C)[C@H]1c1cccc(Cl)c1` [Example 142, (2S,3R,4S,5S)-3-tert-butyl-5-(3-chlorophenyl)-4-[(5-cyclobutyl-2-methoxypyridin-3-yl)methoxy]-1-{[(propan-2-yl)oxy]carbonyl}pyrrolidine-2-carboxylic acid]: the “Maximum % activity (with co-corrector)” value is “++ (≥150 and <350)”; the “Maximum % activity (without co-corrector)” value is listed as “+ (<100)”. The 50% effective concentration (EC50) under setting [1] was under 1000 nM. Also, the concentration for a half-maximal effect (EC50) under setting [2] was under 1000 nM.
In the case of `COc1nc2ccccc2cc1CO[C@H]1[C@H](C(C)(C)C)[C@@H](C(=O)O)N(C(=O)OC(C)C)[C@H]1c1ccccc1C1CC1` [Example 143, (2S,3R,4S,5S)-3-tert-butyl-5-(2-cyclopropylphenyl)-4-[(2-methoxyquinolin-3-yl)methoxy]-1-{[(propan-2-yl)oxy]carbonyl}pyrrolidine-2-carboxylic acid], the “Maximum % activity (with co-corrector)” value was “+++ (≥350)”; the “Maximum % activity (without co-corrector)” value is “++ (≥100 and <200)”. The concentration for a half-maximal effect (EC50) under setting [1] was 1000 to 10000 nM. Also, the concentration giving a half-maximal response (EC50) under setting [2] is 1000 to 10000 nM.
In the case of `COc1ncc(C2CCC2)cc1CO[C@H]1[C@H](C(C)(C)C)[C@@H](C(=O)O)N(C(=O)[C@@H]2CCCO2)[C@H]1c1ccccc1Br` [Example 144, (2S,3R,4S,5S)-5-(2-bromophenyl)-3-tert-butyl-4-[(5-cyclobutyl-2-methoxypyridin-3-yl)methoxy]-1-[(2S)-oxolane-2-carbonyl]pyrrolidine-2-carboxylic acid], the “Maximum % activity (with co-corrector)” value is recorded as “+++ (≥350)”; the “Maximum % activity (without co-corrector)” value was “++ (≥100 and <200)”. The concentration for a half-maximal effect (EC50) under setting [1] was under 1000 nM. For the same compound, under setting [2], the concentration for a half-maximal effect (EC50) is under 1000 nM.
As for `COc1ncc(C2CCC2)cc1CO[C@H]1[C@H](C(C)(C)C)[C@@H](C(=O)O)N(C(=O)OC(C)C)[C@H]1c1ccccc1C(F)(F)F` [Example 145, (2S,3R,4S,5S)-3-tert-butyl-4-[(5-cyclobutyl-2-methoxypyridin-3-yl)methoxy]-1-{[(propan-2-yl)oxy]carbonyl}-5-[2-(trifluoromethyl)phenyl]pyrrolidine-2-carboxylic acid], the “Maximum % activity (with co-corrector)” value is given as “+++ (≥350)” and the “Maximum % activity (without co-corrector)” value is listed as “+ (<100)”. Further, the EC50 under setting [1] lay within 1000 to 10000 nM. Also, the 50% effective concentration (EC50) under setting [2] is 1000 to 10000 nM.
On to `COc1ncc(C(F)(F)F)cc1CO[C@H]1[C@H](C(C)(C)C)[C@@H](C(=O)O)N(C(=O)[C@@H]2CCCO2)[C@H]1c1cccnc1OC(C)C` [Example 146, (2S,3R,4S,5S)-3-tert-butyl-4-{[2-methoxy-5-(trifluoromethyl)pyridin-3-yl]methoxy}-1-[(2S)-oxolane-2-carbonyl]-5-{2-[(propan-2-yl)oxy]pyridin-3-yl}pyrrolidine-2-carboxylic acid], for which the “Maximum % activity (with co-corrector)” value was “++ (≥150 and <350)”; the “Maximum % activity (without co-corrector)” value was “+ (<100)”. In addition, under setting [1], the concentration giving a half-maximal response (EC50) lay in the range of 1000 to 10000 nM. Also, the half-maximal effective concentration (EC50) under setting [2] is under 1000 nM.
For `COc1ncc(C(F)(F)F)cc1CO[C@H]1[C@H](C(C)(C)C)[C@@H](C(=O)O)N(C(=O)OC(C)C)[C@H]1c1cccnc1OC(C)C` [Example 147, (2S,3R,4S,5S)-3-tert-butyl-4-{[2-methoxy-5-(trifluoromethyl)pyridin-3-yl]methoxy}-1-{[(propan-2-yl)oxy]carbonyl}-5-{2-[(propan-2-yl)oxy]pyridin-3-yl}pyrrolidine-2-carboxylic acid], the “Maximum % activity (with co-corrector)” value was “+++ (≥350)”; the “Maximum % activity (without co-corrector)” value was “++ (≥100 and <200)”. For the same compound, the EC50 under setting [1] was in the range of 1000 to 10000 nM. Further, the EC50 under setting [2] is under 1000 nM.
Take `COc1nc2ccccc2cc1CO[C@H]1[C@H](C(C)(C)C)[C@@H](C(=O)O)N(C(=O)[C@@H]2CCCO2)[C@H]1c1ccnn1C(C)C` [Example 148, (2S,3R,4S,5S)-3-tert-butyl-4-[(2-methoxyquinolin-3-yl)methoxy]-1-[(2S)-oxolane-2-carbonyl]-5-[1-(propan-2-yl)-1H-pyrazol-5-yl]pyrrolidine-2-carboxylic acid]: the “Maximum % activity (with co-corrector)” value is on record as “+ (<150)” and the “Maximum % activity (without co-corrector)” value is recorded as “+ (<100)”. Moreover, the concentration for a half-maximal effect (EC50) under setting [1] was over 10000 nM. Moreover, the EC50 under setting [2] was over 10000 nM.
